In assay [1] the target is T1, human calcitonin receptor (hCTR) (Homo sapiens, UniProt P30988).
T1 construct: expressed in transfected cells
T1 sequence (P30988 25-474): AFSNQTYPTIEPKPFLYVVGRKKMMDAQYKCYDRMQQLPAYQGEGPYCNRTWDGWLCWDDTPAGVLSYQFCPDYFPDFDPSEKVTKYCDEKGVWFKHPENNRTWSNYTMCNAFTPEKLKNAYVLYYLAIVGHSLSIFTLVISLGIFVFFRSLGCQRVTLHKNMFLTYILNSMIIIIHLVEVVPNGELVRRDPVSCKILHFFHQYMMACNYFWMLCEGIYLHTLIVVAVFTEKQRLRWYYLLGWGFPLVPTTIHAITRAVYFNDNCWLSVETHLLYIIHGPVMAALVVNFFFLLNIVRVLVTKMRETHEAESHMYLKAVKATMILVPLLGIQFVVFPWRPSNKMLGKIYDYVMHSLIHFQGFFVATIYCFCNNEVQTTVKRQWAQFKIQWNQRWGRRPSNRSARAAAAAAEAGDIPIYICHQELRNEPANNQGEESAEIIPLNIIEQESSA
As to the kind of experiment: cAMP production in 1321N1 cells with stable recombinant expression of human calcitonin receptor (hCTR). Type of assay: cell-based. Particulars: cAMP, 1321N1 cells, assay buffer with 0.1% BSA; read-out: EC50 (pM) hCTR. A digest of the protocol:
(§1)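 Receptor-expressing cells (human receptors in 1321N1, rat receptors in HEK) incubated 30 min at room temperature with peptide in HBSS/HEPES pH 7.4, 0.1% BSA, 0.5 mM IBMX. cAMP read by HTRF; EC50 from 4-parameter fit as % of maximal amylin or calcitonin response.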
A general note: Cyclic AMP is a second messenger, typically raised through Gs and lowered through Gi signalling.

Assay [2] deals with T2, human amylin receptor (calcitonin receptor co-expressed with receptor activity modifying protein, RAMP3) (hAMYR3) (Homo sapiens, UniProt O60896+P30988).
T2 construct: expressed in transfected cells
T2 sequence (P30988 25-474): T1 sequence (P30988 25-474)
T2 sequence (O60896 24-148 partner): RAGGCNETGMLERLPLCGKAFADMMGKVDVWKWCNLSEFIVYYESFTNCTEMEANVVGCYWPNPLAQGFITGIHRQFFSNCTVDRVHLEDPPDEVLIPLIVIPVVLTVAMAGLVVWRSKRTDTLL
In words: cAMP production in 1321N1 cells with stable recombinant expression of human amylin receptor (hAMYR3). The format is cell-based. Particulars: for Ratio (selectivity hAMYR vs hCTR, ratio of EC50 values at the two receptors): EC50 hCTR / EC50 hAMYR3; for EC50: cAMP, 1321N1 cells, assay buffer with 0.1% BSA, read-out: EC50 (pM) hAMYR3. The essentials:
as §1

Numbered stars: 1 amine (or outer) side, 2 acyl side, 3 side chain; on linkers, the order of the positions; unused ones are H or OH. Bridge positions count the residues as written; N and C are the ends. Square brackets hold non-standard residues; d marks the D form. Side chains are listed from the residue outwards. Peptide text beside a SMILES is read from it. * marks the point of attachment. C18 diacid = O=C(O)CCCCCCCCCCCCCCCCC(=O)*; γGlu = O=C(O)[C@H](CCC(=O)[*:2])N[*:1]; αMeF = C[C@](N)(Cc1ccccc1)C(=O)O; Dab = NCC[C@H](N)C(=O)O; AEEA = NCCOCCOCC(=O)O; Aib = CC(C)(N)C(=O)O

By EC50 is commonly meant the concentration that produces a half-maximal response. As to `CC[C@H](C)[C@H](NC(=O)[C@@H]1CCCN1C(=O)CNC(=O)[C@H](Cc1ccccc1)NC(=O)[C@H](CC(N)=O)NC(=O)[C@H](CC(N)=O)NC(=O)[C@H](CO)NC(=O)[C@H](CO)NC(=O)[C@H](Cc1c[nH]cn1)NC(=O)C(C)(C)NC(=O)[C@H](CC(C)C)NC(=O)[C@H](Cc1ccccc1)NC(=O)[C@H](CC(N)=O)NC(=O)[C@H](C)NC(=O)[C@H](CC(C)C)NC(=O)[C@H](CCCNC(=N)N)NC(=O)[C@H](CCC(N)=O)NC(=O)[C@@H](NC(=O)[C@H](C)NC(=O)[C@@H]1CSSC[C@H](NC(=O)[C@@H](N)CCCCNC(=O)CC[C@H](NC(=O)CC[C@H](NC(=O)CCCCCCCCCCCCCCCCC(=O)O)C(=O)O)C(=O)O)C(=O)N[C@@H](CC(N)=O)C(=O)N[C@@H]([C@@H](C)O)C(=O)N[C@@H](C)C(=O)N[C@@H]([C@@H](C)O)C(=O)N1)[C@@H](C)O)C(=O)N[C@@H](CC(C)C)C(=O)N1CCC[C@H]1C(=O)N1CCC[C@H]1C(=O)N[C@H](C(=O)N[C@@H](CC(N)=O)C(=O)N[C@H](C(=O)NCC(=O)N[C@@H](CO)C(=O)N[C@@H](CC(N)=O)C(=O)N[C@H](C(=O)N[C@@H](Cc1ccc(O)cc1)C(N)=O)[C@@H](C)O)C(C)C)[C@@H](C)O` [Peptide 127] (H-K([γGlu-γGlu-C18 diacid])CNTATCATQRLANFL[Aib]HSSNNFGPILPPTNVGSNTY-NH2; disulfide 2-7; N-terminus assumed), the half-maximal effective concentration (EC50) in assay [1] was 7130 pM; in assay [2], 364 pM. Besides, the “Ratio (selectivity hAMYR vs hCTR, ratio of EC50 values at the two receptors)” value in assay [2] was 19.6.

On to `CC[C@H](C)[C@H](NC(=O)[C@@H]1CCCN1C(=O)CNC(=O)[C@H](Cc1ccccc1)NC(=O)[C@H](CC(N)=O)NC(=O)C(C)(C)NC(=O)[C@H](CO)NC(=O)[C@H](CO)NC(=O)[C@H](Cc1c[nH]cn1)NC(=O)[C@H](CCCNC(=N)N)NC(=O)[C@H](CC(C)C)NC(=O)[C@H](Cc1ccccc1)NC(=O)[C@H](CC(N)=O)NC(=O)[C@H](C)NC(=O)[C@H](CC(C)C)NC(=O)[C@H](CCCNC(=N)N)NC(=O)[C@H](CCC(N)=O)NC(=O)[C@@H](NC(=O)[C@H](C)NC(=O)[C@@H]1CSSC[C@H](NC(=O)[C@@H](N)CCCCNC(=O)COCCOCCNC(=O)COCCOCCNC(=O)CC[C@H](NC(=O)CCCCCCCCCCCCCCCCC(=O)O)C(=O)O)C(=O)N[C@@H](CC(N)=O)C(=O)N[C@@H]([C@@H](C)O)C(=O)N[C@@H](C)C(=O)N[C@@H]([C@@H](C)O)C(=O)N1)[C@@H](C)O)C(=O)N[C@@H](CC(C)C)C(=O)N1CCC[C@H]1C(=O)N1CCC[C@H]1C(=O)N[C@H](C(=O)N[C@@H](CCC(=O)O)C(=O)N[C@H](C(=O)NCC(=O)N[C@@H](CO)C(=O)N[C@@H](CC(N)=O)C(=O)N[C@H](C(=O)N[C@@H](Cc1ccc(O)cc1)C(N)=O)[C@@H](C)O)C(C)C)[C@@H](C)O` [Peptide 45, K(O2Oc-O2Oc-γE-C18diacid)[CNTATC]ATQRLANFLRHSS(Aib)NFGPILPPTEVGSNTY-amide] (H-K([AEEA-AEEA-γGlu-C18 diacid])CNTATCATQRLANFLRHSS[Aib]NFGPILPPTEVGSNTY-NH2; disulfide 2-7; N-terminus assumed), for which the EC50 in assay [1] turned out to be 16900 pM; in assay [2], 588 pM. Moreover, the “Ratio (selectivity hAMYR vs hCTR, ratio of EC50 values at the two receptors)” value in assay [2] turned out to be 29.

Turning to `CC[C@H](C)[C@H](NC(=O)[C@@H]1CCCN1C(=O)CNC(=O)[C@](C)(Cc1ccccc1)NC(=O)[C@H](CC(N)=O)NC(=O)[C@H](CC(N)=O)NC(=O)[C@H](CO)NC(=O)[C@H](CO)NC(=O)[C@H](Cc1c[nH]cn1)NC(=O)[C@@H](NC(=O)[C@H](CC(C)C)NC(=O)[C@H](Cc1ccccc1)NC(=O)[C@H](CC(N)=O)NC(=O)[C@H](C)NC(=O)[C@H](CC(C)C)NC(=O)[C@H](CCCNC(=N)N)NC(=O)[C@H](CCC(N)=O)NC(=O)[C@@H](NC(=O)[C@H](C)NC(=O)[C@@H]1CSSC[C@H](NC(=O)[C@H](CCCCN)NC(=O)[C@@H](N)CCCCNC(=O)CC[C@H](NC(=O)CCCCCCCCCCCCCCCCC(=O)O)C(=O)O)C(=O)N[C@@H](CC(N)=O)C(=O)N[C@@H]([C@@H](C)O)C(=O)N[C@@H](C)C(=O)N[C@@H]([C@@H](C)O)C(=O)N1)[C@@H](C)O)C(C)C)C(=O)N[C@@H](CC(C)C)C(=O)N1CCC[C@H]1C(=O)N1CCC[C@H]1C(=O)N[C@H](C(=O)N[C@@H](CC(N)=O)C(=O)N[C@H](C(=O)NCC(=O)N[C@@H](CO)C(=O)N[C@@H](CC(N)=O)C(=O)N[C@H](C(=O)N[C@@H](Cc1ccc(O)cc1)C(N)=O)[C@@H](C)O)C(C)C)[C@@H](C)O` [Peptide 14, K(γE-C18diacid)K[CNTATC]ATQRLANFLVHSSNN(αMePhe)GPILPPTNVGSNTY-amide] (H-K([γGlu-C18 diacid])KCNTATCATQRLANFLVHSSNN[αMeF]GPILPPTNVGSNTY-NH2; disulfide 3-8; N-terminus assumed), the half-maximal effective concentration (EC50) in assay [1] turned out to be 1350 pM; in assay [2], 220 pM. The “Ratio (selectivity hAMYR vs hCTR, ratio of EC50 values at the two receptors)” value in assay [2] is listed as 6.

As to `CC[C@H](C)[C@H](NC(=O)[C@@H]1CCCN1C(=O)CNC(=O)[C@H](Cc1ccccc1)NC(=O)[C@H](CC(N)=O)NC(=O)C(C)(C)NC(=O)[C@H](CO)NC(=O)[C@H](CO)NC(=O)[C@H](Cc1c[nH]cn1)NC(=O)[C@@H](NC(=O)[C@H](CC(C)C)NC(=O)[C@H](Cc1ccccc1)NC(=O)[C@H](CC(N)=O)NC(=O)[C@H](C)NC(=O)[C@H](CC(C)C)NC(=O)[C@H](CCCNC(=N)N)NC(=O)[C@H](CCC(N)=O)NC(=O)[C@@H](NC(=O)[C@H](C)NC(=O)[C@@H]1CSSC[C@H](NC(=O)[C@@H](N)CCCCNC(=O)CC[C@H](NC(=O)CCCCCCCCCCCCCCCCC(=O)O)C(=O)O)C(=O)N[C@@H](CC(N)=O)C(=O)N[C@@H]([C@@H](C)O)C(=O)N[C@@H](C)C(=O)N[C@@H]([C@@H](C)O)C(=O)N1)[C@@H](C)O)C(C)C)C(=O)N[C@@H](CC(C)C)C(=O)N1CCC[C@H]1C(=O)N1CCC[C@H]1C(=O)N[C@H](C(=O)N[C@@H](CCCNC(=N)N)C(=O)N[C@H](C(=O)NCC(=O)N[C@@H](CO)C(=O)N[C@@H](CC(N)=O)C(=O)N[C@H](C(=O)N[C@@H](Cc1ccc(O)cc1)C(N)=O)[C@@H](C)O)C(C)C)[C@@H](C)O` [Peptide 63, K(γE-C18diacid)[CNTATC]ATQRLANFLVHSS(Aib)NFGPILPPTRVGSNTY-amide] (H-K([γGlu-C18 diacid])CNTATCATQRLANFLVHSS[Aib]NFGPILPPTRVGSNTY-NH2; disulfide 2-7; N-terminus assumed), the concentration giving a half-maximal response (EC50) in assay [1] worked out at 375 pM. Further, in assay [2], the “Ratio (selectivity hAMYR vs hCTR, ratio of EC50 values at the two receptors)” value was 5 and the EC50 stood at 76 pM.

On to `CC[C@H](C)[C@H](NC(=O)C(C)(C)NC(=O)CNC(=O)[C@H](Cc1ccccc1)NC(=O)[C@H](CC(N)=O)NC(=O)[C@H](CCN)NC(=O)[C@H](CO)NC(=O)[C@H](CO)NC(=O)[C@H](Cc1c[nH]cn1)NC(=O)[C@@H](NC(=O)[C@H](CC(C)C)NC(=O)[C@H](Cc1ccccc1)NC(=O)[C@H](CC(N)=O)NC(=O)[C@H](C)NC(=O)[C@H](CC(C)C)NC(=O)[C@H](CCCNC(=N)N)NC(=O)[C@H](CCC(N)=O)NC(=O)[C@@H](NC(=O)[C@H](C)NC(=O)[C@@H]1CSSC[C@H](NC(=O)[C@H](CCCCN)NC(=O)[C@@H](N)CCCCNC(=O)CC[C@H](NC(=O)CCCCCCCCCCCCCCCCC(=O)O)C(=O)O)C(=O)N[C@@H](CC(N)=O)C(=O)N[C@@H]([C@@H](C)O)C(=O)N[C@@H](C)C(=O)N[C@@H]([C@@H](C)O)C(=O)N1)[C@@H](C)O)C(C)C)C(=O)N[C@@H](CC(C)C)C(=O)N1CCC[C@H]1C(=O)N1CCC[C@H]1C(=O)N[C@H](C(=O)N[C@@H](CC(N)=O)C(=O)N[C@H](C(=O)NCC(=O)N[C@@H](CO)C(=O)N[C@@H](CC(N)=O)C(=O)N[C@H](C(=O)N[C@@H](Cc1ccc(O)cc1)C(N)=O)[C@@H](C)O)C(C)C)[C@@H](C)O` [Peptide 31, K(γE-C18diacid)K[CNTATC]ATQRLANFLVHSS(Dab)NFG(Aib)ILPPTNVGSNTY-amide] (H-K([γGlu-C18 diacid])KCNTATCATQRLANFLVHSS[Dab]NFG[Aib]ILPPTNVGSNTY-NH2; disulfide 3-8; N-terminus assumed), for which, in assay [1], the EC50 amounted to 1280 pM. Besides, in assay [2], the “Ratio (selectivity hAMYR vs hCTR, ratio of EC50 values at the two receptors)” value was 4 and the 50% effective concentration (EC50) was determined as 349 pM.

Source of the values: US20240067693A1, “POLYPEPTIDES AND USES THEREOF” (MEDIMMUNE LIMITED, priority 2020, published 2024).
